Data on four molecules can be found in paper PMC11211329, “Phage-encoded bismuth bicycles enable instant access to targeted bioactive peptides” (Communications Chemistry, 2024).

A word on the Kd: it is the equilibrium constant for the complex coming apart. Low readings indicate a tighter complex, high ones a looser complex.

Values joined by “and” are separate entries in the source; they are usually repeats but may differ in a detail not shown here. Identical values can stand only once. Like-named read-outs stand apart in the source and are kept apart here.

The assay concerns the target T1, streptavidin (Streptomyces avidinii, UniProt P22629).
T1 construct: purchased New England Biolabs
Briefly: biochemical. It counts as binding. As to conditions: for more active than linear counterpart: ratio of KD, bicycle vs linear peptide. On the procedure: SPR measurements were performed with 20 mM HEPES–KOH pH 7.4, 150 mM NaCl, 0.5 mM TCEP, 0.05% (v/v) polysorbate 20 as running buffer. For each experiment, 100–150 μg streptavidin in 10 mM sodium acetate pH 3.9 buffer was freshly immobilised on a sensor chip flow-cell using EDC/NHS chemistry at 25 °C in absence of TCEP. All binding experiments were conducted at 20 °C in single-cycle kinetics mode (Fig. 4, Supplementary Figs. 17, 18, Supplementary Data 2).
SPR experiments were performed on a Biacore 8K (Cytiva, USA) using a CM5 chip (Cytiva, 29104988, USA), onto which streptavidin (New England Biolabs, USA) was freshly immobilised using an amine coupling kit (Cytiva, USA) for each individual experiment. The instrument was operated using Biacore Insight 5 software (Cytiva, USA). The data were plotted and analysed in GraphPad Prism 10 (Dotmatics, USA) using the non-linear fit ‘one site – specific binding’ (Supplementary Equation 2). KD values of duplicate measurements are represented as the mean value ± standard deviation.
Supplementary Equation 2.
X = analyte concentration [µM]
RUmax = maximum response [RU]
KD = dissociation constant [µM]

T1 sequence (P22629 25-183): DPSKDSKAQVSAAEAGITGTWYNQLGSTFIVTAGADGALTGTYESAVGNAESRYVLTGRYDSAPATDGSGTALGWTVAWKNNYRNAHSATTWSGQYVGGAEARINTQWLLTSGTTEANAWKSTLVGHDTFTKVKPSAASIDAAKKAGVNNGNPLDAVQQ

For `CSCC[C@@H]1NC(=O)[C@@H]2CCCN2C(=O)[C@H](Cc2c[nH]cn2)NC(=O)[C@H](CO)NC(=O)[C@@H](NC(=O)[C@H](C)N)C[S][Bi]2[S]C[C@@H](C(N)=O)NC(=O)[C@@H]3CCCN3C(=O)[C@H](Cc3ccccc3)NC(=O)CNC(=O)[C@H](CCC(=O)O)NC(=O)[C@H](C[S]2)NC1=O` [1b], the “affinity towards streptavidin (in words)” value (SPR) was “micromolar affinity”. Besides, the Response (SPR, 0.390625 μM peptide) was 6.1348 RU and 7.3042 RU; the Response (SPR, 0.78125 μM peptide) is 7.9335 RU and 9.6048 RU; the Response (SPR, 1.5625 μM peptide) was 11.7844 RU and 13.9912 RU; the Response (SPR, 3.125 μM peptide) is 18.5476 RU and 21.5419 RU; the Response (SPR, 6.25 μM peptide) is 29.9992 RU and 34.3112 RU; the Response (SPR, 12.5 μM peptide) was 48.2716 RU and 55.717 RU. The Response by setting is: (SPR, 25 μM peptide) 75.0467 RU and 86.4584 RU; (SPR, 50 μM peptide) 95.3416 RU and 109.542 RU; (SPR, 100 μM peptide) 110.889 RU and 126.3 RU.
Turning to `C[C@H](N)C(=O)N[C@H]1C[S][Bi]2[S]C[C@@H](C(N)=O)NC(=O)[C@H](C)NC(=O)[C@H](C)NC(=O)[C@H](C)NC(=O)[C@H](CCC(=O)O)NC(=O)[C@H](C[S]2)NC(=O)[C@H](CCC(N)=O)NC(=O)[C@@H]2CCCN2C(=O)[C@H](Cc2c[nH]cn2)NC(=O)[C@@H]2CCCN2C1=O` [2b], the “more active than linear counterpart” value was “approximately 200 times”. Further, under “SPR”, the “affinity towards streptavidin (in words)” value is “micromolar affinity”. The Response (SPR, 0.390625 μM peptide) is 13.0345 RU and 9.7931 RU. Moreover, the Response (SPR, 0.78125 μM peptide) was 13.307 RU and 10.0327 RU. Moreover, the Response (SPR, 1.5625 μM peptide) is 13.7466 RU and 10.2315 RU. For the same molecule, the Response (SPR, 3.125 μM peptide) was 15.583 RU and 11.4763 RU. In addition, the Response (SPR, 6.25 μM peptide) is 24.2151 RU and 19.0135 RU. Also, the Response (SPR, 12.5 μM peptide) is 41.2334 RU and 33.5268 RU. Besides, the Response (SPR, 25 μM peptide) is 50.6436 RU and 38.7895 RU. The Response (SPR, 50 μM peptide) was 52.9652 RU and 37.872 RU. For the same molecule, for the setting “SPR, 100 μM peptide”, the Response is 63.2365 RU and 47.0629 RU. Where the note is “SPR, 20 °C, single-cycle kinetics, 1b, 2b, 3a, 4a n = 2 (mean ± SD), 2, 3, 3b, 4b n = 1”, this molecule yielded a Kd of 7.4 µM.
On to `C[C@H](N)C(=O)N[C@H]1CS[As]2SC[C@@H](C(N)=O)NC(=O)[C@H](C)NC(=O)[C@@H]3CCCN3C(=O)[C@H](CCC(=O)O)NC(=O)[C@H]([C@@H](C)O)NC(=O)[C@H](CS2)NC(=O)[C@H](CC(N)=O)NC(=O)[C@H](CCC(N)=O)NC(=O)[C@@H]2CCCN2C(=O)[C@H](Cc2c[nH]cn2)NC1=O` [3a], for which the Kd was 11.7 µM and the “more active than linear counterpart” value was “approximately 80 times”. Moreover, the “affinity towards streptavidin (in words)” value (SPR) is on record as “micromolar affinity”. Also, the Response (SPR, 0.390625 μM peptide) is 3.2004 RU and 3.5032 RU. For the same molecule, the Response (SPR, 0.78125 μM peptide) is 4.9583 RU and 6.3102 RU. Besides, where the note is “SPR, 1.5625 μM peptide”, the Response was 9.0442 RU and 11.2377 RU. Also, the Response (SPR, 3.125 μM peptide) was 17.2093 RU and 20.7499 RU. Also, for the setting “SPR, 6.25 μM peptide”, the Response was 31.5997 RU and 35.2522 RU. The Response (SPR, 12.5 μM peptide) was 49.5222 RU and 52.7774 RU. Moreover, the Response (SPR, 25 μM peptide) was 65.4485 RU and 68.0889 RU. For the same molecule, the Response (SPR, 50 μM peptide) was 75.5589 RU and 77.8751 RU.
As for `C[C@H](N)C(=O)N[C@H]1C[S][Bi]2[S]C[C@@H](C(N)=O)NC(=O)[C@H](C)NC(=O)[C@@H]3CCCN3C(=O)[C@H](CCC(=O)O)NC(=O)[C@H]([C@@H](C)O)NC(=O)[C@H](C[S]2)NC(=O)[C@H](CC(N)=O)NC(=O)[C@H](CCC(N)=O)NC(=O)[C@@H]2CCCN2C(=O)[C@H](Cc2c[nH]cn2)NC1=O` [3b], the “affinity towards streptavidin (in words)” value (SPR) is on record as “two-digit micromolar dissociation constants”. Further, the Response by setting is: (SPR, 0.78125 μM peptide) 7.812 RU; (SPR, 1.5625 μM peptide) 10.9116 RU; (SPR, 3.125 μM peptide) 21.8994 RU; (SPR, 6.25 μM peptide) 58.4112 RU; (SPR, 12.5 μM peptide) 130.364 RU; (SPR, 25 μM peptide) 206.319 RU. For the same molecule, the Response amounted to 242.538 RU (SPR, 50 μM peptide); 254.246 RU (SPR, 100 μM peptide); 258.218 RU (SPR, 200 μM peptide).
